# Laboratory results: patent US8889667B2 (Agios Pharmaceuticals, Inc, priority 2010, dated 2014)
# Molecular target: PKM2 (Homo sapiens, UniProt P14618)
# Assay: PKM2 Assay (activation, LDH-coupled, absorbance at 340 nm)
# Assay type: biochemical
# Details: Table 4
# Outline: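 Read-out was the 340 nm NADH absorbance change at 25 °C in an LDH-coupled system (PEP 0.15 mM, NADH 180 μM, ADP 0.7 mM to initiate) in 50 mM Tris pH 7.5, 100 mM KCl, 5 mM MgCl2. PKM2 at 50 ng/well was first preincubated with compound for 30 min at 4 °C. Activation given as AC50.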
# Chain of PKM2 (P14618 whole entry): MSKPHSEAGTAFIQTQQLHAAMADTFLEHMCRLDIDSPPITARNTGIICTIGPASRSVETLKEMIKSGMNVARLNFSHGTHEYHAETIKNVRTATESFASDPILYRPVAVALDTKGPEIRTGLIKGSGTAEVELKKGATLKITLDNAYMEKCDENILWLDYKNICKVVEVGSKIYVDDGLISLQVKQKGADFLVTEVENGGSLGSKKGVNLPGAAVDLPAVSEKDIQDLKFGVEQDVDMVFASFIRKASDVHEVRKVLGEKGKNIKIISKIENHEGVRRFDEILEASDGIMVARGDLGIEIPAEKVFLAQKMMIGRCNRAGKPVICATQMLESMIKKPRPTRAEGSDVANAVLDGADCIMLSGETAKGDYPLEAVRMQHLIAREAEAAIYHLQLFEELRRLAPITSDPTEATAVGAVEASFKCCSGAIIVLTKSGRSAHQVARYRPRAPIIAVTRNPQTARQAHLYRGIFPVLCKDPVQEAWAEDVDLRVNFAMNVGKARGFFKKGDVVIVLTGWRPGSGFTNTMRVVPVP
row,SMILES,AC50 [nM]
1,"C[C@H]1CN(Cc2ccc(F)c(F)c2F)CCN1C(=O)c1ccc(NS(=O)(=O)c2cccc3cccnc23)cc1 [Compound 154, (S)—N-(4-(2-methyl-4-(2,3,4-trifluorobenzyl)piperazine-1-carbonyl)phenyl)quinoline-8-sulfonamide]",100 to 500
2,CC(C)[C@H]1CN(Cc2ccc(F)cc2)CCN1C(=O)c1ccc(NS(=O)(=O)c2cccc3cccnc23)cc1 [Compound 175],1000 to 20000
3,"C[C@@H]1CN(Cc2c(F)ccc(F)c2F)CCN1C(=O)c1ccc(NS(=O)(=O)c2cccc3cccnc23)cc1 [Compound 132, (R)—N-(4-(2-methyl-4-(2,3,6-trifluorobenzyl)piperazine-1-carbonyl)phenyl)quinoline-8-sulfonamide]",< 100
4,"C[C@H]1CN(Cc2ccccc2F)CCN1C(=O)c1ccc(NS(=O)(=O)c2cccc3cccnc23)cc1 [Compound 143, (S)—N-(4-(4-(2-fluorobenzyl)-2-methylpiperazine-1-carbonyl)phenyl)quinoline-8-sulfonamide]",< 100
5,"C[C@@H]1CN(Cc2ccccc2F)CCN1C(=O)c1ccc(NS(=O)(=O)c2cccc3cccnc23)cc1 [Compound 150, (R)—N-(4-(4-(2-fluorobenzyl)-2-methylpiperazine-1-carbonyl)phenyl)quinoline-8-sulfonamide]",< 100
6,O=C(c1ccc(NS(=O)(=O)c2cccc3cccnc23)cc1)N1CCN(CC2CC2)C[C@@H]1c1ccccc1 [Compound 180],100 to 500
7,"CC(c1c(F)ccc(F)c1F)N1CCN(C(=O)c2ccc(NS(=O)(=O)c3cccc4cccnc34)cc2)[C@H](C)C1 (stereo partly drawn) [Compound 190, N-(4-((2R)-2-methyl-4-(1-(2,3,6-trifluorophenyl)ethyl)piperazine-1-carbonyl)phenyl)quinoline-8-sulfonamide]",< 100
8,"C[C@@H]1CN(Cc2ccc(F)cc2)CCN1C(=O)c1ccc(NS(=O)(=O)c2cccc3cccnc23)cc1 [Compound 131, (R)—N-(4-(4-(4-fluorobenzyl)-2-methylpiperazine-1-carbonyl)phenyl)quinoline-8-sulfonamide]",< 100
9,"CC(c1c(F)ccc(F)c1F)N1CCN(C(=O)c2ccc(NS(=O)(=O)c3cccc4cccnc34)cc2)[C@@H](C)C1 (stereo partly drawn) [Compound 192, N-(4-((2S)-2-methyl-4-(1-(2,3,6-trifluorophenyl)ethyl)piperazine-1-carbonyl)phenyl)quinoline-8-sulfonamide]",100 to 500
10,"C[C@H]1CN(Cc2ccc(Cl)c(F)c2)CCN1C(=O)c1ccc(NS(=O)(=O)c2cccc3cccnc23)cc1 [Compound 138, (S)—N-(4-(4-(4-chloro-3-fluorobenzyl)-2-methylpiperazine-1-carbonyl)phenyl)quinoline-8-sulfonamide]",100 to 500
11,"C[C@H]1CN(CC2CCOC2)CCN1C(=O)c1ccc(NS(=O)(=O)c2cccc3cccnc23)cc1Cl (stereo partly drawn) [Compound 187, N-(3-chloro-4-((2S)-2-methyl-4-((tetrahydrofuran-3-yl)methyl)piperazine-1-carbonyl)phenyl)quinoline-8-sulfonamide]",100 to 500
12,"CC(C)OC(=O)N1[C@H](C)CN(C(=O)c2ccc(NS(=O)(=O)c3cccc4cccnc34)cc2)C[C@@H]1C [Compound 106, (2S,6R)-isopropyl 2,6-dimethyl-4-(4-(quinoline-8-sulfonamido)benzoyl)piperazine-1-carboxylate]",100 to 500
13,"C[C@H]1CN(Cc2c(F)cc(F)cc2F)CCN1C(=O)c1ccc(NS(=O)(=O)c2cccc3cccnc23)cc1 [Compound 164, (S)—N-(4-(2-methyl-4-(2,4,6-trifluorobenzyl)piperazine-1-carbonyl)phenyl)quinoline-8-sulfonamide]",100 to 500
14,CC(c1cc(F)cc(F)c1)N1CCN(C(=O)c2ccc(NS(=O)(=O)c3cccc4cccnc34)cc2)[C@@H](C)C1 (some centres unmarked) [Compound 170],100 to 500
15,"C[C@H]1CN(C(=O)OCC2CC2)CCN1C(=O)c1ccc(NS(=O)(=O)c2cccc3cccnc23)cc1 [Compound 111, (S)-Cyclopropylmethyl3-methyl-4-(4-(quinoline-8-sulfonamido)benzoyl)piperazine-1-carboxylate]",< 100
16,"COc1ccccc1N1C[C@@H](C)N(C(=O)c2ccc(NS(=O)(=O)c3cccc4cccnc34)cc2)[C@@H](C)C1 [Compound 222, N-(4-((2R,6S)-4-(2-methoxyphenyl)-2,6-dimethylpiperazine-1-carbonyl)phenyl)quinoline-8-sulfonamide]",< 100
17,"CCOC(=O)N1CCN(C(=O)c2ccc(NS(=O)(=O)c3cccc4cccnc34)cc2)[C@@H](C)C1 [Compound 107, (S)-Ethyl 3-methyl-4-(4-(quinoline-8-sulfonamido)benzoyl)piperazine-1-carboxylate]",500 to 1000

# Same assay, conditions: Table 5
row,SMILES,AC50 [nM]
1,"O=C(c1ccc(NS(=O)(=O)c2cccc3cccnc23)cc1F)N1CCN(CC2CCOCC2)CC1 [Compound 436, N-(3-fluoro-4-(4-((tetrahydro-2H-pyran-4-yl)methyl)piperazine-1-carbonyl)phenyl)quinoline-8-sulfonamide]",< 100
2,"O=C(c1ccc(NS(=O)(=O)c2cccc3cccnc23)cc1F)N1CCN(CC2CCCCO2)CC1 (centres unmarked) [Compound 435, N-(3-fluoro-4-(4-((tetrahydro-2H-pyran-2-yl)methyl)piperazine-1-carbonyl)phenyl)quinoline-8-sulfonamide]",100 to 500
3,"COc1cccnc1CN1CCN(C(=O)c2ccc(NS(=O)(=O)c3cccc4cccnc34)c(OC(F)(F)F)c2)CC1 [Compound 373, N-(4-(4-((3-methoxypyridin-2-yl)methyl)piperazine-1-carbonyl)-2-(trifluoromethoxy)phenyl)quinoline-8-sulfonamide]",100 to 500
4,"O=C(c1ccc(NS(=O)(=O)c2cccc3cccnc23)c(OC(F)(F)F)c1)N1CCN(Cc2cccc(F)c2)CC1 [Compound 377, N-(4-(4-(3-fluorobenzyl)piperazine-1-carbonyl)-2-(trifluoromethoxy)phenyl)quinoline-8-sulfonamide]",100 to 500
5,"COc1cccc(OC)c1CN1CCN(C(=O)c2ccc(NS(=O)(=O)c3cccc4cccnc34)c(OC(F)(F)F)c2)CC1 [Compound 392, N-(4-(4-(2,6-dimethoxybenzyl)piperazine-1-carbonyl)-2-(trifluoromethoxy)phenyl)quinoline-8-sulfonamide]",500 to 1000
6,"O=C(c1ccc(NS(=O)(=O)c2cccc3cccnc23)nc1)N1CCN(Cc2cc(F)cc(F)c2)CC1 [Compound 413, N-(5-(4-(3,5-difluorobenzyl)piperazine-1-carbonyl)pyridin-2-yl)quinoline-8-sulfonamide]",100 to 500
7,"O=C(OCCC1CCCC1)N1CCN(C(=O)c2ccc(NS(=O)(=O)c3cccc4cccnc34)c(OC(F)(F)F)c2)CC1 [Compound 312, 2-cyclopentylethyl-4-(4-(quinoline-8-sulfonamido)-3-(trifluoromethoxy)benzoyl)piperazine-1-carboxylate]",500 to 1000
8,"COc1cc(C(=O)N2CCN(C(=O)c3ccc(F)c(F)c3)CC2)ccc1NS(=O)(=O)c1cccc2cccnc12 [Compound 319, N-(4-(4-(3,4-difluorobenzoyl)piperazine-1-carbonyl)-2-methoxyphenyl)quinoline-8-sulfonamide]",100 to 500
9,"O=C(c1ccc(NS(=O)(=O)c2cccc3cccnc23)cc1)N1CCN(C(=O)C2CCOC2)CC1 (centres unmarked) [Compound 418, N-(4-(4-(tetrahydrofuran-3-carbonyl)piperazine-1-carbonyl)phenyl)quinoline-8-sulfonamide]",100 to 500
10,"O=C(c1ccc(NS(=O)(=O)c2cccc3cccnc23)c(OC(F)(F)F)c1)N1CCN(Cc2ccc(F)c(F)c2)CC1 [Compound 378, N-(4-(4-(3,4-difluorobenzyl)piperazine-1-carbonyl)-2-(trifluoromethoxy)phenyl)quinoline-8-sulfonamide]",100 to 500
11,"O=C(c1ccc(NS(=O)(=O)c2cccc3cccnc23)cc1F)N1CCN(CC2CCCO2)CC1 (centres unmarked) [Compound 437, N-(3-fluoro-4-(4-((tetrahydrofuran-2-yl)methyl)piperazine-1-carbonyl)phenyl)quinoline-8-sulfonamide]",< 100
12,"O=C(c1ccc(NS(=O)(=O)c2cccc3cccnc23)cc1)N1CCN(C(=O)c2cncs2)CC1 [Compound 348, N-(4-(4-(thiazole-5-carbonyl)piperazine-1-carbonyl)phenyl)quinoline-8-sulfonamide]",< 100
13,"O=C(c1ccc(NS(=O)(=O)c2cccc3cccnc23)cc1)N1CCN(C(=O)C2CCOCC2)CC1 [Compound 417, N-(4-(4-(tetrahydro-2H-pyran-4-carbonyl)piperazine-1-carbonyl)phenyl)quinoline-8-sulfonamide]",100 to 500
14,"O=C(c1ccc(NS(=O)(=O)c2cccc3cccnc23)c(OC(F)(F)F)c1)N1CCN(CC2CCCC2)CC1 [Compound 336, N-(4-(4-(cyclopentylmethyl)piperazine-1-carbonyl)-2-(trifluoromethoxy)phenyl)quinoline-8-sulfonamide]",500 to 1000
15,O=C(c1ccc(NS(=O)(=O)c2cccc3cccnc23)c(OC(F)(F)F)c1)N1CCN(C(=O)c2cocn2)CC1 [Compound 327],500 to 1000
16,"C[C@@H](c1ccccc1)N1CCN(C(=O)c2ccc(NS(=O)(=O)c3cccc4cccnc34)cc2)CC1 [Compound 387, (S)—N-(4-(4-(1-phenylethyl)piperazine-1-carbonyl)phenyl)quinoline-8-sulfonamide]",< 100
17,"O=C(c1ccc(NS(=O)(=O)c2cccc3cccnc23)c(OC(F)(F)F)c1)N1CCN(Cc2cncc(Cl)c2)CC1 [Compound 367, N-(4-(4-((5-chloropyridin-3-yl)methyl)piperazine-1-carbonyl)-2-(trifluoromethoxy)phenyl)quinoline-8-sulfonamide]",100 to 500
18,"O=C(c1ccc(NS(=O)(=O)c2cccc3cccnc23)c(OC(F)(F)F)c1)N1CCN(C2(c3ccc(F)cc3)CC2)CC1 [Compound 402, N-(4-(4-(1-(4-fluorophenyl)cyclopropyl)piperazine-1-carbonyl)-2-(trifluoromethoxy)phenyl)quinoline-8-sulfonamide]",100 to 500
